Measurements taken from paper PMC8506265 (Bioorganic & medicinal chemistry, 2021).

Tests used:
human CB1 [1] = biological target: T1, human CB1 (Homo sapiens, UniProt P21554); test: BRET CAMYEL cAMP assay in HEK293 3HA-hCB1 cells; format: cell-based
human CB1 [2] = biological target: T1, human CB1; format: biochemical; settings: operational model of allosterism; probe CP55,940
human CB1 [3] = biological target: T1, human CB1; test: hCB1 calcium mobilization assay
human CB1 [4] = biological target: T1, human CB1; test: [35S]GTPγS binding assay, hCB1 HEK293 membranes; format: biochemical

T1 sequence (P21554 whole entry): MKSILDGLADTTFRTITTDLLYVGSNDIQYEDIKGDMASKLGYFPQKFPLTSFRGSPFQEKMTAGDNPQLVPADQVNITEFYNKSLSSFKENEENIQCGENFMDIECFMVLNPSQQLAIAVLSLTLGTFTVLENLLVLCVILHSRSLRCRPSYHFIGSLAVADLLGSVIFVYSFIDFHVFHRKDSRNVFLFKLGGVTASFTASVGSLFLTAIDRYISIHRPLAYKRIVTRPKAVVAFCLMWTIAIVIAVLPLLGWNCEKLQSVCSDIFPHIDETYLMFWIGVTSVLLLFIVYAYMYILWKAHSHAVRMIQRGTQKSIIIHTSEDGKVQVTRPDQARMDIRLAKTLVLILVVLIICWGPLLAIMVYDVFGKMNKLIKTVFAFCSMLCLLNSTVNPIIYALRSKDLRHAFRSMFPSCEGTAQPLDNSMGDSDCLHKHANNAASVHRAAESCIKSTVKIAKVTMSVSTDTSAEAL

Row | potency in the cAMP assay (human CB1 [1]) | IC50 (human CB1 [3]) [nM] | IC50 (human CB1 [4]) [µM] | SMILES | other results
1 | – | – | – | O=C(NCCc1ccc(N2CCCCC2)cc1)Nc1ccc(Cl)cc1 [Compound 9, 1-(4-Chlorophenyl)-3-{2-[4-(piperidin-1-yl)phenyl]ethyl}-urea] | alpha (binding cooperativity) (human CB1 [2]): 5.1; beta (modification of probe efficacy) (human CB1 [2]): 0.09; logalpha (binding cooperativity) (human CB1 [2]): 0.7 ± 0.1; logbeta (modification of probe efficacy) (human CB1 [2]): −1.1 ± 0.1
2 | low micromolar range | – | – | CN(C)c1ccc(CCNC(=O)Nc2ccc(Cl)cc2)cc1 [Compound 12, 3‐(4‐Chlorophenyl)‐1‐{2‐[4‐(dimethylamino)phenyl]ethyl}-urea] | –
3 | – | > 10000 | – | O=C(NCc1ccccc1)Nc1ccc(Cl)cc1 [Compound 13, 3‐(4‐Chlorophenyl)‐1‐(3‐phenylmethyl)urea] | –
4 | – | > 10000 | – | CC(C)(CNC(=O)Nc1ccc(Cl)cc1)c1ccccc1 [Compound 15, 1-(4-Chlorophenyl)-3-(2-methyl-2-phenylpropyl)urea] | –
5 | – | > 10000 | – | O=C(Nc1ccc(Cl)cc1)NC1(Cc2ccccc2)CC1 [Compound 19, 1-(1-Benzylcyclopropyl)-3-(4-chlorophenyl)urea] | –
6 | – | 1580 | 7.94 | O=C(NCCc1ccsc1)Nc1ccc(Cl)cc1 [Compound 24, 1-(4-Chlorophenyl)-3-[2-(thiophen-3-yl)ethyl]urea] | –
7 | – | 794 | 7.94 | O=C(NCCc1cccs1)Nc1ccc(Cl)cc1 [Compound 25, 1-(4-Chlorophenyl)-3-[2-(thiophen-2-yl)ethyl]urea] | –
8 | low micromolar range | 251 | 12.6 | Cc1ccc(CCNC(=O)Nc2ccc(Cl)cc2)o1 [Compound 26, 1‐(4‐Chlorophenyl)‐3‐[2‐(5‐methylfuran‐2‐yl)ethyl]urea] | IC50 (human CB1 [1]): 3.98 µM

Row | SMILES | potency in the cAMP assay (human CB1 [1]) | IC50 (human CB1 [3]) [nM] | IC50 (human CB1 [4]) [µM] | other results
9 | O=C(NCCc1ccccc1)Nc1ccc(Cl)cc1 [Compound 8, 3‐(4‐Chlorophenyl)‐1‐(2‐phenylethyl)urea] | low micromolar range | – | – | –
10 | CC(C)(Cc1ccccc1)NC(=O)Nc1ccc(Cl)cc1 [Compound 16, 1-(4-Chlorophenyl)-3-(2-methyl-1-phenylpropan-2-yl)urea] | – | > 10000 | – | –
